Patent US4248865A, “Novel aminoglycoside derivatives” (Shionogi & Co., Ltd., priority 1978, dated 1981)
Values after ≈ are worked out from the molar mass of the structure shown.

Experiments:
Assay type in all cases: cell-based
[1] = test system: Pseudomonas aeruginosa TB-151; test: MIC by agar dilution method, Pseudomonas aeruginosa TB-151; settings: TB151, P. aeruginosa TB-151, tobramycin resistant strain, 10^6 CFU/ml, 37° C., 18 to 20 hours, read-out: Minimum Inhibitory Concentration (MIC)
Proteus vulgaris TB-615 = test: MIC by agar dilution method, Proteus vulgaris TB-615; settings: TB615, P. vulgaris TB-615, tobramycin resistant strain, 10^6 CFU/ml, 37° C., 18 to 20 hours, read-out: Minimum Inhibitory Concentration (MIC)
Proteus mirabilis TB-617 = test: MIC by agar dilution method, Proteus mirabilis TB-617; settings: TB617, P. mirabilis TB-617 (not marked as resistant), 10^6 CFU/ml, 37° C., 18 to 20 hours, read-out: Minimum Inhibitory Concentration (MIC)

Work on `NC[C@H]1O[C@H](O[C@H]2[C@H](O)[C@@H](O[C@H]3O[C@H](CO)[C@@H](O)[C@H](N)[C@H]3O)[C@H](N)C[C@@H]2N)[C@H](N)C[C@@H]1O` [TOB, tobramycin, reference compound] yielded an MIC [1] of 50 µg/mL (≈ 107 µM), an MIC (Proteus vulgaris TB-615) of 50 µg/mL (≈ 107 µM) and an MIC (Proteus mirabilis TB-617) of 6.2 µg/mL (≈ 13.3 µM).
In the case of `NC[C@H]1O[C@H](O[C@H]2[C@H](O)[C@@H](O[C@H]3O[C@H](CO)[C@@H](O)[C@H](N)[C@H]3O)[C@H](NC3=NCC[C@@H]3O)C[C@@H]2N)[C@H](N)C[C@@H]1O` [[A], 1N-[(S)(-)-3-hydroxy-1-pyrrolin-2-yl]tobramycin], the MIC [1] is reported as 25 µg/mL (≈ 45.4 µM), the MIC (Proteus vulgaris TB-615) is reported as 25 µg/mL (≈ 45.4 µM) and the MIC (Proteus mirabilis TB-617) is reported as 3.1 µg/mL (≈ 5.63 µM).
With `NC[C@H]1O[C@H](O[C@H]2[C@H](O)[C@@H](O[C@H]3O[C@H](CO)[C@@H](O)[C@H](N)[C@H]3O)[C@H](NC3=NCCC[C@@H]3O)C[C@@H]2N)[C@H](N)C[C@@H]1O` [[B], 1N-[(S)(-)-3-hydroxy-3,4,5,6-tetrahydropyridin-2-yl]tobramycin] the MIC [1] was 25 µg/mL (≈ 44.3 µM), the MIC (Proteus vulgaris TB-615) was 25 µg/mL (≈ 44.3 µM) and the MIC (Proteus mirabilis TB-617) was 3.1 µg/mL (≈ 5.49 µM).
